Data reported in article PMC8779255, “Determining the Anticancer Activity of Sphingosine Kinase Inhibitors Containing Heteroatoms in Their Tail Structure” (Pharmaceutics, 2022).
Entries after “also recorded” stand apart in the source; their conditions may differ.

Tests used:
SK2 = conditions: Figure 1, cited from earlier work; for IC50: known compounds
SK1 = conditions: known compounds, Figure 1; cited from earlier work
SK1 enzyme = target: T1, SK1 enzyme (Homo sapiens, UniProt Q9NYA1); assay: SK activity assay (Adapta screening system); type: biochemical; conditions: 20 μM, Figure 5
T1 construct: purchased Thermo Fisher Scientific
T1 sequence (Q9NYA1 whole entry): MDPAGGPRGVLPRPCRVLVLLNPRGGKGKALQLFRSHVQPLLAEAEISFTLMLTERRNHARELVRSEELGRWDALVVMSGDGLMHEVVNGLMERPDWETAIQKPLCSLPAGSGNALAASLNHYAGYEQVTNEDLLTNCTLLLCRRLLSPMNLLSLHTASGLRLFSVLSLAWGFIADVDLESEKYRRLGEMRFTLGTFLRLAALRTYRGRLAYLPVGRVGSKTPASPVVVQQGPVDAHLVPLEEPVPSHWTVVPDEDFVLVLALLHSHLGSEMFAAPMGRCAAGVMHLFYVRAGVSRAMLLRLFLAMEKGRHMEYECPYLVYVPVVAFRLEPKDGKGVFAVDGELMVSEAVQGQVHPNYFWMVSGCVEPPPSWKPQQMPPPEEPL
Description: The effect of compounds in sphingosine kinase activity was examined using the […] screening system (Thermo Fisher Scientific System, Waltham, MA, USA). The kinase inhibition ability of compounds 1-11 along with RB005 was measured with final concentration of 20 μM. […] The data were presented as percentage inhibition of SK enzyme by individual compounds.

HT29 cells [1] = assay: MTT cell viability assay; type: cell-based, human; conditions: HT29, 20 and 40 µM, 24 h, Figure 2A
Description: (§1) The HT29 and HCT116 cells (human colon cancer), AGS (human gastric cancer), and MIA PaCa-2 cells (human pancreatic cancer) were purchased from Korean Cell Line Bank (Seoul, Korea). Cancer cells were maintained in RPMI (HT29 and AGS) and DMEM (HCT116 and MIA PaCa-2) culture media supplemented with 10% fetal bovine serum (FBS) and 100 U/mL penicillin and streptomycin at 37 °C in a 95% humidified incubator containing 5% CO2. The cytotoxic effect of the compounds was assessed using the MTT cell viability assay. Briefly, 3 × 10^3 cells/well were grown in 96-well plates for 24 h. After treatment with desired concentration of respective compounds for 24 h or 48 h, the EZ-CYTOTOX (10 µM) reagent was added in each well and incubated for 90 min. The absorbance was measured at 450 nm wavelength using Skanlt software 5.0 (Thermo Scientific, Waltham, MA, USA) installed on a Multiskan GO (Thermo Scientific, Waltham, MA, USA) spectrophotometer. Each experiment was independently repeated three times (n = 12).

HCT116 cells = assay: MTT cell viability assay; type: cell-based, human; conditions: for cytotoxic effect (cell viability): HCT116, 20 and 40 µM, 24 h, Figure 2B
Description: as §1

[2] = tested on: AKT and ERK phosphorylation in HCT116 cells; assay: Western blotting of pAKT and pERK; type: cell-based, human; conditions: HCT116, 20 µM
Description: The cell lysate was prepared after successive treatment using mammalian protein extraction buffer (Organic buffer + 10 mM NaCl + detergent pH 7.5) mixed with 1% protease/phosphatase inhibitor cocktail; protein was quantified with BCA assay, boiled at 95 °C for 10 min by adding sample loading buffer, separated using SDS-PAGE, and transferred into methanol-activated PVDF membrane. Primary antibodies were probed overnight in PVDF membrane at 4 °C and […] with subsequent HRP anti-mouse and anti-rabbit secondary antibodies at room temperature. Then, membranes were washed with TBST buffer, and images were detected by Amersham Imager 680 (GE Healthcare; Leiden, WZ, The Netherlands) using ECL solution. Band intensities were analyzed and quantified using Image J software (version 1.53i).

HT29 cells [3] = assay: Annexin V-FITC/PI staining, flow cytometry; type: cell-based, human; conditions: HT29, 10 and/or 20 µM, 24 h
Description: After treating HT29 and HCT116 cells with compounds 10, 11, 13 and FTY720 according to the manufacturer’s instruction, the annexin V and PI staining technique was employed to determine apoptosis in the cells. Briefly, cells (2.5 × 10^5 cells/well) were seeded in 12-well plates and treated with 10 and/or 20 µM of compounds for 24 h. Cells were collected using trypsin-EDTA and stained with annexin V-FITC dye for 15 min at room temperature, followed by PI staining for 20 min and analyzed by flow cytometer (MACSQuant Analyzer 10; Miltenyi Biotec, Bergisch Gladbach, Germany). The data was analyzed using MACSQuantify^TM version 2.8 software (Miltenyi Biotec, Bergisch Gladbach, Germany) and presented as early apoptosis, late apoptosis, or combined apoptosis percentage. Each experiment was repeated three times independently (n = 6).

PP2A in HCT116 cells = target: T2, PP2A in HCT116 cells (Homo sapiens, UniProt P67775); assay: PP2A activity assay (immunoprecipitation kit); type: cell-based; conditions: for PP2A activity (activation): HCT116, 20 µM, 24 h
T2 construct: endogenous in cells; host or cells: HCT116
T2 sequence (P67775 whole entry): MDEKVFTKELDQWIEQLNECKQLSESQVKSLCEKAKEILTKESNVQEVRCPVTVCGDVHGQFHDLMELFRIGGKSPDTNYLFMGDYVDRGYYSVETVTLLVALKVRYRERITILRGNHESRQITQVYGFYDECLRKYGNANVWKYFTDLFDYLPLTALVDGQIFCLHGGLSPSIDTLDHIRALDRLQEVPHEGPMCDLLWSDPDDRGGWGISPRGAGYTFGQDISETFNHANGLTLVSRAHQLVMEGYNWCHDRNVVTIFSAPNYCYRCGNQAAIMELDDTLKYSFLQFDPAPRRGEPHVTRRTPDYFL
Description: The activity of PP2A was measured by using the PP2A kit according to the manufacturer’s instruction. The cell lysate was incubated with anti PP2A, C subunit antibody, and protein A agarose slurry for 2 h at 4 °C. The phosphopeptide solution (60 µL) was mixed and incubated at 30 °C for 10 min in a shaker. After a brief centrifuge, a 25 µL sample was liquated in ½ volume microplate and 100 µL malachite green phosphate detection working solution was added. After color development, absorbance was taken at 650 nm in a Multiskan GO microplate reader. A phosphate standard curve was constructed using phosphate standard, and results were calculated using this standard curve. This experiment was repeated three times (n = 6).

CYP1A2 = target: T3, CYP1A2 (Homo sapiens, UniProt P05177); assay: Inhibition of CYP enzymes activity, human liver microsomes; conditions: human liver microsomes 0.25 mg/mL, 10 μM, phenacetin substrate
T3 sequence (P05177 1-516): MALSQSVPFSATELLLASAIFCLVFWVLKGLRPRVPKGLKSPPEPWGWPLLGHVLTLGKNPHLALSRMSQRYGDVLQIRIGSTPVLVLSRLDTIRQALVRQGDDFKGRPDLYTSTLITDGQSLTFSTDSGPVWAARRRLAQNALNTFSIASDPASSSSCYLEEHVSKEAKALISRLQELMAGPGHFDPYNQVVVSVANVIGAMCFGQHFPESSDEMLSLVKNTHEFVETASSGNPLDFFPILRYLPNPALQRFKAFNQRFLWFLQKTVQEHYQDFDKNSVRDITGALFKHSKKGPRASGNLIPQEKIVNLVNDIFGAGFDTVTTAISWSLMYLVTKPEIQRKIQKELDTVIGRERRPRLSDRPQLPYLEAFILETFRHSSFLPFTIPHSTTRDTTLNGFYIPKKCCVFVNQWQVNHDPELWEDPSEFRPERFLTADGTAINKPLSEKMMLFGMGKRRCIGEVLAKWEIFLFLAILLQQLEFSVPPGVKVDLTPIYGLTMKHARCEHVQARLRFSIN

CYP2C19 = CYP2C19 (Homo sapiens, UniProt P33261); assay: as above; conditions: human liver microsomes 0.25 mg/mL, 10 μM, S-mephenytoin substrate
Sequence of CYP2C19 (P33261 whole entry): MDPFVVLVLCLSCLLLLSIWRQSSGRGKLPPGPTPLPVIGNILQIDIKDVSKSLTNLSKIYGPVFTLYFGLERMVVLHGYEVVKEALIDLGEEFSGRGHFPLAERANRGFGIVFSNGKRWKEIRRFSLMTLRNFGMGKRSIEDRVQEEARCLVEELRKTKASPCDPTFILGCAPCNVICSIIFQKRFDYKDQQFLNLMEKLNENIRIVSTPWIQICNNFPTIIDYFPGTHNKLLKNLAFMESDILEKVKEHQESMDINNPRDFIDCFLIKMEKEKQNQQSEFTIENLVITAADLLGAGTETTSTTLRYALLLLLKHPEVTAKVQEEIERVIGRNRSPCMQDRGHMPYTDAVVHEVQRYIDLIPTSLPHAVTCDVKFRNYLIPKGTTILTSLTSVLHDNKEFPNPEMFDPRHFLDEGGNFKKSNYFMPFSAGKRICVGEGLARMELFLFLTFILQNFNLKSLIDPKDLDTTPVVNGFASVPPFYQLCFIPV

CYP2C9 = CYP2C9 (Homo sapiens, UniProt P11712); assay: as above; conditions: human liver microsomes 0.25 mg/mL, 10 μM, diclofenac substrate
Sequence of CYP2C9 (P11712 whole entry): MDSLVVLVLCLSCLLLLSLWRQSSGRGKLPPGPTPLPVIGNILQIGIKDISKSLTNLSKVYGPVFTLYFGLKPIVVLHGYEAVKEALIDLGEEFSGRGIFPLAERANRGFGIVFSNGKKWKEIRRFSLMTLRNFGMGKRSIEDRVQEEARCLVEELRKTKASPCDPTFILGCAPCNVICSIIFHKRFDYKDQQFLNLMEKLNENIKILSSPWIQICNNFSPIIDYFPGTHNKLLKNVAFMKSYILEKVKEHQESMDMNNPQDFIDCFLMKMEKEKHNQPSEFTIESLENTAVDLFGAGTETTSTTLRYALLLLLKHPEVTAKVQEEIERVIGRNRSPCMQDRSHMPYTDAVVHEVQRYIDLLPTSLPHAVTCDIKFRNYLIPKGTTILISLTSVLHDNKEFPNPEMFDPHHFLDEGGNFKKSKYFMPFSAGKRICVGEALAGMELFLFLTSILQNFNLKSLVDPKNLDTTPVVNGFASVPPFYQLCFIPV

[4] = In vitro metabolic stability in liver microsomes; type: in vitro ADME, mouse
[5] = In vitro metabolic stability in liver microsomes
CYP2D6 = CYP2D6 (Homo sapiens, UniProt P10635); assay: Inhibition of CYP enzymes activity, human liver microsomes; conditions: human liver microsomes 0.25 mg/mL, 10 μM, dextromethorphan substrate
Sequence of CYP2D6 (P10635 whole entry): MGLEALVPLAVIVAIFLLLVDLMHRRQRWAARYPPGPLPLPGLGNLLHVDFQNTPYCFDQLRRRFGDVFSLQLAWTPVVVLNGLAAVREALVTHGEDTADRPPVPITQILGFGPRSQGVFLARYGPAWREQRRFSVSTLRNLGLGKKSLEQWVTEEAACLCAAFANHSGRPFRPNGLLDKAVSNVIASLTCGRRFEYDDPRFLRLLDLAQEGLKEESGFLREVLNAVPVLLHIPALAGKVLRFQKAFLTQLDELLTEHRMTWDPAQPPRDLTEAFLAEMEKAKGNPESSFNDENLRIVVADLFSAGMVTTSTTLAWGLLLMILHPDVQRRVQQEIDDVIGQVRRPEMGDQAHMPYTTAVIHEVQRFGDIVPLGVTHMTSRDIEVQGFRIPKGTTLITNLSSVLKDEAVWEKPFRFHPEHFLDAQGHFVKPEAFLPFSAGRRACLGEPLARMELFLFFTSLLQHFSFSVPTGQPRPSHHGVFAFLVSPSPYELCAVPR

[6] = In vitro metabolic stability in liver microsomes; type: in vitro ADME, rat
[7] = % remaining after 30 min, NADPH

In the case of `O=C(NCc1ccncc1)C12CC3CC(C1)CC(c1ccc(Cl)cc1)(C3)C2` [ABC294640], the IC50 (SK2) is given as roughly 60 µM and the IC50 (SK1) is given as greater than 100 µM.
In the case of `CCCCCCCOc1ccc(CCN2CCC[C@@H]2CO)cc1` [Compound 1, (R)-(1-(4-(Heptyloxy)phenethyl)pyrrolidin-2-yl)methanol], the SK1 inhibitory effect (SK1 enzyme) is reported as “highest SK1 inhibitory effect”, the “cytotoxic effect (cell viability)” value (HT29 cells [1]) is reported as “more cytotoxic than RB005 and 5-FU” and the “cytotoxic effect (cell viability)” value (HCT116 cells) is reported as “significant cytotoxic effects in both 20 and 40 µM concentrations”.
With `CCCCCCCOc1ccc(CCN2CCCCC2)cc1` [Compound 2, 1-(4-(Heptyloxy)phenethyl)piperidine] the “cytotoxic effect (cell viability)” value (HT29 cells [1]) was “more cytotoxic than RB005 and 5-FU” and the “cytotoxic effect (cell viability)” value (HCT116 cells) was “significant cytotoxic effects in both 20 and 40 µM concentrations”.
In the case of `CCCCCCCOc1ccc(CCN2CCC[C@H]2CO)cc1` [Compound 5, (S)-(1-(4-(Heptyloxy)phenethyl)pyrrolidin-2-yl)methanol], the “cytotoxic effect (cell viability)” value (HCT116 cells) is reported as “only 40 µM concentration of compounds 3, 5 and 9 shows significant cytotoxic effect”.
With `CCCCCCCOc1ccc(CCN2CCC(CO)CC2)cc1` [Compound 6, (1-(4-(Heptyloxy)phenethyl)piperidin-4-yl)methanol] the “cytotoxic effect (cell viability)” value (HT29 cells [1]) was “more cytotoxic than RB005 and 5-FU” and the “cytotoxic effect (cell viability)” value (HCT116 cells) was “significant cytotoxic effects in both 20 and 40 µM concentrations”.
In the case of `CCCCCCCOc1ccc(CCN2CCC(C)CC2)cc1` [Compound 7, 1-(4-(Heptyloxy)phenethyl)-4-methylpiperidine], the “cytotoxic effect (cell viability)” value (HCT116 cells) is reported as “significant cytotoxic effects in both 20 and 40 µM concentrations”.
In the case of `CCCCCCCOc1ccc(CCN2CCCC(CO)C2)cc1` (stereo not shown) [Compound 8, (1-(4-(Heptyloxy)phenethyl)piperidin-3-yl)methanol], the “cytotoxic effect (cell viability)” value (HT29 cells [1]) is reported as “more cytotoxic than RB005 and 5-FU” and the “cytotoxic effect (cell viability)” value (HCT116 cells) is reported as “significant cytotoxic effects in both 20 and 40 µM concentrations”.
In the case of `CCCCCCCOc1ccc(CCN2CCNCC2)cc1` [Compound 9, 1-(4-(Heptyloxy)phenethyl)piperazine], the “cytotoxic effect (cell viability)” value (HT29 cells [1]) is reported as “more cytotoxic than RB005 and 5-FU” and the “cytotoxic effect (cell viability)” value (HCT116 cells) is reported as “only 40 µM concentration of compounds 3, 5 and 9 shows significant cytotoxic effect”.
For `O=S(=O)(Oc1ccc(CCN2CCC[C@@H]2CO)cc1)c1ccccc1` [Compound 11, (R)-4-(2-(2-(Hydroxymethyl)pyrrolidin-1-yl)ethyl)phenyl benzenesulfonate], the “phosphorylation of AKT and ERK” value [2] was “did not decrease phosphorylation of AKT and ERK”, the “apoptosis (annexin V assay)” value (HT29 cells [3]) was “did not significantly induce apoptosis” and the SK1 inhibitory effect (SK1 enzyme) was “three-fold higher SK1 inhibitory effect than RB005”. The “selectivity to SK1 (over SK2)” value (SK1 enzyme) was “more selectivity than RB005” and the “PP2A activity (activation)” value (PP2A in HCT116 cells) was “no effect on PP2A activation; also recorded: did not increase PP2A activity”.
With `O=S(=O)(Oc1ccc(CCN2CCC(O)CC2)cc1)c1ccccc1` [Compound 13, 4-(2-(4-Hydroxypiperidin-1-yl)ethyl)phenyl benzenesulfonate] the “phosphorylation of AKT and ERK” value [2] was “did not decrease phosphorylation of AKT and ERK”, the “apoptosis (annexin V assay)” value (HT29 cells [3]) was “did not significantly induce apoptosis” and the “selectivity to SK1 (over SK2)” value (SK1 enzyme) was “more selectivity than RB005”. The “PP2A activity (activation)” value (PP2A in HCT116 cells) was “no effect on PP2A activation; also recorded: did not increase PP2A activity”.
For `CCCCOc1ccc(CCC=C2SC(=O)N(CCN)C2=O)cc1` [Compound K145], the IC50 (SK2) is given as 4.3 µM and the IC50 (SK1) is given as greater than 10 µM.
For `CC(=O)N1CCN(c2ccc(OCC3COC(Cn4ccnc4)(c4ccc(Cl)cc4Cl)O3)cc2)CC1` (stereo not shown) [Ketoconazole], the “CYP1A2 activity (% of control activity)” value (CYP1A2) was greater than 100%, the “CYP2C19 activity (% of control activity)” value (CYP2C19) was greater than 100% and the “CYP2C9 activity (% of control activity)” value (CYP2C9) was greater than 100%.
With `Cc1cc(CS(=O)(=O)c2ccccc2)cc(OCc2ccc(CN3CCC[C@@H]3CO)cc2)c1` [PF-543] the “liver microsomal stability, Mouse (%)” value [4, 7] was 6.5%, the “liver microsomal stability (in words)” value ([4]; mouse) was “unstable” and the “liver microsomal stability, Human (%)” value ([5]; % remaining after 30 min, 0.5 mg/mL microsomes, NADPH) was 13.5%. The “liver microsomal stability (in words)” value ([5]; human) was “unstable”, the “CYP1A2 activity (% of control activity)” value (CYP1A2) was 80.9% and the “CYP2D6 activity (% of control activity)” value (CYP2D6) was 63.9%. The “liver microsomal stability, Rat (%)” value [6, 7] was 8.1% and the “liver microsomal stability (in words)” value ([6]; rat) was “unstable”.
For `CCCCCCCCc1ccc(CCN2CCC(O)CC2)cc1` [RB005, reference compound], the “cytotoxic effect, comparison” value (HCT116 cells; HCT116, 10, 20 and 40 µM, Supplementary Figure S1C) was “higher than compounds 11, 13, and PF-543” and the PP2A activity increase (PP2A in HCT116 cells; HCT116, 24 h, 20 µM of compounds 10, 11 and 13, vs nontreated control cells) was 1.59 fold.
For `CCCCCCCCOc1ccc(-c2noc([C@@H]3CCCN3C(=N)N)n2)cc1C(F)(F)F` [SLM6041434], the Ki (SK2; known compound) is given as 0.4 to 1.1 µM.
